This is an account of results in the METLIN SMRT retention time set (Domingo-Almenara et al. 2019).

The nature of the data set: gradient 5% acetonitrile 3 min, to 50% in 2 min, to 85% in 15 min, held 3 min, 100 µL/min. To be noted: column: Zorbax Extend-C18 2.1 x 50 mm; eluents: water / acetonitrile, 0.1% formic acid. The procedure, abridged: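 Retention times come from adduct peaks that were picked computationally and then checked by hand. The standards, pure and pooled in mixtures of ~100 molecules, were run on a Zorbax Extend-C18 column (2.1 × 50 mm, 1.8 μm) at 100 μL/min with water and acetonitrile, each with 0.1% formic acid. Detection was by quadrupole time-of-flight mass spectrometry in positive and negative ionization mode, with a dead volume of 40 μL and a dwell volume of 900 μL.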
In turn, `COc1ccc(Cl)cc1NC(=O)C1CCCN1S(=O)(=O)c1cc2c(cc1C)NC(=O)C(C)O2` (stereo not drawn) registered an RP-LC retention time of 909 s.

In the case of `CCOC(=O)c1cnc2nc(C)ccc2c1Nc1cc(OC)cc(OC)c1`, the RP-LC retention time came out at 720 s.

Regarding `CCCN(C(C)=O)c1nc(-c2ccc(C)cc2)cs1`, the RP-LC retention time is 1190 s.

`COC(=O)c1cc(S(=O)(=O)N2CCCC2C(=O)NCc2ccc(F)cc2)cn1C` (stereo not drawn): the RP-LC retention time came to 799 s.

`CC(C)n1cnc2ccc(-c3noc(COc4ccc(F)cc4)n3)cc21` had an RP-LC retention time of 783 s.

On to `CN(C)C(=O)c1csc(N2CCN(c3ccccc3F)CC2)n1`, for which the RP-LC retention time stood at 884 s.

`Cc1cccc(CCNC(=S)Nc2ccc3nc(N4CCN(C)CC4)cc(C)c3c2)c1` gave an RP-LC retention time of 618 s.

`CCc1nnc(-c2ccc3ccn(CC(=O)NCc4ccccc4)c3c2)o1` yielded an RP-LC retention time of 1300 s.

Consider `CCC(=O)N1CCc2cc(N3CC(C(=O)NCc4ccc(Cl)cc4)CC3=O)ccc21` (stereo not drawn), for which the RP-LC retention time turned out to be 637 s.

`COc1cc(CNC(=O)C2CCCN(c3nccnc3Oc3ccccc3)C2)cc(OC)c1` (stereo not drawn) had an RP-LC retention time of 929 s.

Compound `O=c1n(Cc2ccc(F)cc2)nc2ccc(S(=O)(=O)N3CCc4ccccc4C3)cn12` had an RP-LC retention time of 983 s.

On to `CCCn1c(=O)c(C)nc2cc(-c3noc(-c4cccs4)n3)ccc21`, for which the RP-LC retention time came out at 1120 s.

The compound `Oc1ccc2c3c1O[C@H]1[C@@H](O)CC[C@@]4(O)C(C2)N(CC2CCC2)CCC314` (stereo partly drawn) registered an RP-LC retention time of 635 s.

Regarding `CCc1ccc(NC(=O)Cn2c(CC)nc3c(c2=O)CN(Cc2ccccc2)CC3)cc1`, the RP-LC retention time worked out at 710 s.

`O=C(NCCCN1CCCCC1)C1CCN(c2nc3cccnc3s2)CC1` displayed an RP-LC retention time of 577 s.

Compound `CC1=C(c2ccccc2)S(=O)(=O)N=C1N1CCCN(C(=O)c2cc(C)ccc2C)CC1` yielded an RP-LC retention time of 870 s.

As to `CC1(C(=O)NCc2ccccc2Cl)Cn2cnc(C(=O)NCc3ccccc3)c2C(=O)N1C1CC1` (stereo not drawn), the RP-LC retention time worked out at 789 s.

Turning to `Cc1ccc(C)c(C(=O)N2CCC(COc3ccc(C(=O)NC(C)C)cc3)CC2)c1`, the RP-LC retention time worked out at 912 s.

`CCc1cccc(NC(=O)CCc2c(C)nc3nc(-c4cc(OC)cc(OC)c4)nn3c2C)c1` had an RP-LC retention time of 970 s.

With `Cc1nnc(-c2nnc(NCc3ccccc3F)c3ccccc23)o1`, the RP-LC retention time worked out at 819 s.

In turn, `CN(C)C(=O)c1n[nH]c2c1CN(C(=O)c1ccc(Br)cc1)CC2` showed an RP-LC retention time of 634 s.

Compound `Fc1ccc(F)c(Cn2cccc2-c2nc(-c3ccncc3)no2)c1` yielded an RP-LC retention time of 1130 s.

With `CSc1ccc(NS(=O)(=O)c2cc3c(s2)CCN(C(=O)C2CC2)C3)cc1`, the RP-LC retention time came to 856 s.

`O=C(NC1CC1)c1ccc(OCC2CCCN(C(=O)C3CC3)C2)cc1` (stereo not drawn) had an RP-LC retention time of 718 s.

In turn, `CCc1ccccc1NC(=O)N1CCC(c2cc(N)on2)CC1` showed an RP-LC retention time of 751 s.

`Cc1noc(C)c1C(=O)N1CCCC1Cc1noc(C2CCCC2)n1` (stereo not drawn) had an RP-LC retention time of 820 s.

Compound `COc1ccc(C(C)NC(=O)c2cn3cc(Cl)ccc3n2)cc1` (stereo not drawn) returned an RP-LC retention time of 833 s.

Turning to `Cc1cccc(C)c1Nc1c(-c2ccc(N3CCOCC3)cc2)nc2ncccn12`, the RP-LC retention time is 721 s.

Take `CCn1c(CCNC(=O)c2ccc(OC)cc2C)nc2cccnc21`: the RP-LC retention time was found to be 733 s.

With `c1coc(-c2nnc(Nc3nc4cc5c(cc4s3)OCO5)o2)c1`, the RP-LC retention time was 694 s.

With `Cc1ccccc1Oc1nccn2c(=O)n(CC(=O)Nc3ccccc3Cl)nc12`, the RP-LC retention time is 863 s.

Consider `COC(=O)c1ncn2c1C(=O)N(Cc1ccc(Cl)cc1)C(C)(C(=O)NC1CCCCC1)C2` (stereo not drawn), for which the RP-LC retention time came to 798 s.

On to `CCn1cc(-c2nc(CC(=O)N3CCc4ccccc43)cs2)c2cccnc21`, for which the RP-LC retention time was found to be 954 s.

Compound `CCCCn1cc(S(=O)(=O)Nc2ccc(F)cc2C)c2cccnc21` returned an RP-LC retention time of 989 s.

As for `CC(C(=O)NCCN1CCCCC1)n1c2ccccc2c2cnn(C)c(=O)c21` (stereo not drawn), the RP-LC retention time stood at 628 s.

For the compound `Cn1cc(-c2cc3n(n2)CCC(=O)N3CC(=O)NCc2ccccc2)c2ccccc21`, the RP-LC retention time amounted to 798 s.

`CC(C)c1noc(C2CCCCN2C(=O)c2cnn3cccnc23)n1` (stereo not drawn) returned an RP-LC retention time of 755 s.

`COC[C@@H]1OCCN(S(=O)(=O)c2cccc(F)c2)[C@H]1c1ccccc1` returned an RP-LC retention time of 928 s.

`COc1cccc(C(O)CN2CCN(c3ccccc3)CC2)c1` (stereo not drawn) registered an RP-LC retention time of 634 s.

As for `COc1ccc(NC(=O)Nc2nccn(-c3ccc(C)c(C)c3)c2=O)cc1OC`, the RP-LC retention time was determined as 913 s.

Regarding `Cc1nn(-c2ccc(N3CCOCC3)nn2)c(C)c1CCC(=O)NCCCc1ccco1`, the RP-LC retention time was 692 s.

Turning to `O=C(Cc1ccc(Br)cc1)NC1CCN(c2cc(-c3cccs3)[nH]n2)C1` (stereo not drawn), the RP-LC retention time came out at 767 s.

Regarding `O=S(=O)(c1ccc2c(c1)-c1oncc1CO2)N1CCN(c2ccccn2)CC1`, the RP-LC retention time was determined as 647 s.

Regarding `CN(C(=O)Cn1ccn2nc(-c3ccccc3)c(CO)c2c1=O)c1ccccc1`, the RP-LC retention time amounted to 774 s.

In the case of `COc1ccc(N2CCN(c3ncc4c(n3)CCN(Cc3ccccc3Cl)C4)CC2)cc1`, the RP-LC retention time amounted to 667 s.

As for `O=c1c2cc(-c3ccccc3)nn2ccn1Cc1noc(CN2CCCCC2)n1`, the RP-LC retention time worked out at 651 s.

`CCc1cccc(NC(=O)C2CCCN(c3nnc(C)c4c(C)n(-c5ccccc5)nc34)C2)c1` (stereo not drawn) gave an RP-LC retention time of 815 s.

Turning to `O=C(NC1CCN(c2nnc3ccccn23)CC1)c1cccc(F)c1`, the RP-LC retention time was 640 s.

As to `COc1cc(N2C(=O)CC(N3CCC(C(N)=O)CC3)C2=O)cc(OC)c1OC` (stereo not drawn), the RP-LC retention time amounted to 563 s.

As to `CC(C)N(Cc1ccccc1)C(=O)c1cc2c(=O)n3ccccc3nc2n1C`, the RP-LC retention time was determined as 884 s.

`Cc1cc(OCC(=O)Nc2cccc(F)c2)nc(N2CCN(c3ccccc3)CC2)n1` registered an RP-LC retention time of 871 s.

For the compound `Cc1ccccc1-n1ccn(Cc2nc(-c3cccc(F)c3)no2)c(=O)c1=O`, the RP-LC retention time amounted to 837 s.

In turn, `O=C(NCc1cccs1)C1CCCN(c2nnc3c(Cl)cccn23)C1` (stereo not drawn) showed an RP-LC retention time of 684 s.

Compound `COc1ccc(OC)c(NC(=O)Nc2c(-c3ccccc3)nc3ccccn23)c1` registered an RP-LC retention time of 668 s.

In the case of `CC1(C)C(=O)Nc2ccc(S(=O)(=O)N3CCC(c4noc(C5CC5)n4)C3)cc21` (stereo not drawn), the RP-LC retention time was determined as 747 s.

In turn, `COC(=O)c1ccc(NC(=O)C(=O)NCC2CCN(C(=O)Oc3ccccc3)CC2)cc1` registered an RP-LC retention time of 868 s.

For the compound `Cc1c(C(=O)NCCCN2CCOCC2)oc2ccc3c(c12)C(O)CC(C)(C)O3` (stereo not drawn), the RP-LC retention time stood at 612 s.

For `O=c1n(Cc2ccc(Cl)cc2)nc2c(S(=O)(=O)N3CCCCCC3)cccn12`, the RP-LC retention time came out at 991 s.
